Literature values in US20220183969A1, “OCULAR INSERT CONTAINING A GLUCOCORTICOID” (Ocular Therapeutix, Inc., priority 2020, published 2022).

Settings: for Equivalent Dose: established equivalent oral dose; for Relative Potency: oral glucocorticoid potency with reference to cortisol

SMILES | Equivalent Dose | Relative Potency
C[C@]12C=CC(=O)C=C1CC[C@H]1[C@@H]3C[C@@H](O)[C@](O)(C(=O)CO)[C@@]3(C)C[C@H](O)[C@@]12F [Triamcinolone] | 4 mg | 5
C[C@@H]1C[C@H]2[C@@H]3CCC4=CC(=O)C=C[C@]4(C)[C@@]3(F)[C@@H](O)C[C@]2(C)[C@@]1(O)C(=O)CO [Dexamethasone, 9-Fluor-11β,17,21-trihydroxy-16α-methyl-pregna-1,4-dien-3,20-dion] | 0.8 mg | 25-80
C[C@]12C=CC(=O)C=C1CC[C@@H]1[C@@H]2[C@@H](O)C[C@@]2(C)[C@H]1CC[C@]2(O)C(=O)CO [Prednisolone] | 5 mg | 4
C[C@]12CCC(=O)C=C1CC[C@@H]1[C@@H]2[C@@H](O)C[C@@]2(C)[C@H]1CC[C@]2(O)C(=O)CO [Cortisol] | 20 mg | 1
